Assay results as given in patent US20260218210A1, “ENGINEERED BACTERIA FOR CELLULAR BARRIER M[…] PROTECTION” (The Trustees of Columbia University in the City of New York, priority 2023, published 2026).

Columns and labels:
[1] = tested on: acute DSS colitis in NFD/FDD fed mice; test: Acute DSS colitis in mice fed fiber-deficient (no fiber) diet; type: in vivo, mouse
Experimental: (§1) Mice and diets C57BL/6J and Il10^−/− mice were purchased from Jackson Laboratory. Animals were purchased from maximum barrier rooms and maintained in high barrier animal rooms at Columbia University. All mice were maintained under specific-pathogen-free (SPF) conditions for the duration of the experiments. All experiments were performed under IACUC approved guidelines. To control for microbiota and cage effects, mice were shuffled between cages before the start of each experiment and randomly assigned to each group. All experiments were performed with gender and age (8-12 weeks at start of experiment) matched mice. Animals were maintained on normal diet (PicoLab Rodent Diet 20, 5053) until start of experiments and then switched to fiber-deficient diet (Teklad Custom Diet, TD.00278) or continued on ND as indicated. ND contained 21% protein, 53.4% carbohydrates, 5% fat, 5% fiber and 4 kcal/g. FDD contained 19.3% protein, 64.8% carbohydrates, 5.1% fat and no fiber, overall the diet provides 3.9 kcal/g.
(§2) DSS colitis and GLP-1 modulating therapies For induction of acute DSS colitis, between 0.5% to 6% w/v dextran sulfate sodium (DSS, colitis grade, MPbio) was supplemented in drinking water for five days. Drinking water was furthermore enriched with 2% w/v sucrose for all groups. Mice were switched to FDD seven days prior to DSS supplementation or maintained on ND during course of experiment. As indicated, FDD mice were i.p. injected with 0.1 μg/g GLP-1 receptor agonist (Exendin-4, AS-24463, AnaSpec) or 0.4 μg/g GLP-1 receptor antagonist (Exendin-9-39, AS-24467, AnaSpec) in 100 μl PBS every day starting one day before start of DSS. Additionally, mice were orally gavaged with either 10^10 CFU E. coli Nissle (EcN) or 10^10 CFU E. coli Nissle-HldSE (EcN-HldSE) every day starting one day prior to DSS supplementation. Of note, tissue samples for RNA-sequencing analysis are derived from mice either gavaged with EcN (control and GLP-1 receptor agonist groups) or EcN-HldSE (EcN-HldSE and GLP-1 receptor antagonist groups). Mice were monitored daily for changes in body weight. After five days, mice were euthanized for blood and tissue sampling.
Histological analyses The colonic tissue was carefully rinsed with PBS to remove fecal matter. Colon and small intestine was fixated in 10% formalin for >24 hours and embedded in paraffin. 5 μm section were stained with H&E, Alcian Blue and Immunohistochemistry (IHC) staining for GLP-1 (GLP-1 polyclonal antibody, PA5-79303, Invitrogen). A pathologist assessed and scored H&E stained slides for colitis grading.
Plating for liver colony forming units (CFU) For bacterial extraction from liver tissue, livers were first weighed and then transferred into sterile stainless steel microvials (Biospec #2007) containing two stainless steel beads (6.35 mm, Biospec #11079635SS) and capped with silicone rubber caps (Biospec #2008). The vials were subsequently filled with 500 μL of sterile phosphate-buffered saline (PBS), and the tubes were placed on ice to prevent bacterial growth. The samples were homogenized using a Mini-BeadBeater-16 (BioSpec) with three cycles of 30 seconds at 4° C. After extraction, the samples were diluted as needed in PBS, and 100 μL of the diluted solution was plated onto Luria-Bertani (LB) agar plates (2% agar). The plates were thoroughly dried and incubated at 37° C. overnight. Colony-forming units (CFU) were counted the following day and normalized to tissue weight.
Plasma analyses GLP-1 and pro-inflammatory cytokine measurements were performed from plasma samples. After euthanasians, blood was drawn from mice with needles coated with EDTA to stop coagulation. Blood samples were pelleted by centrifugation for 10 min at 15000 rpm at 4° C. Supernatant was transferred to a new tube, snap frozen and stored at −80° C. GLP-1 ELISA (GLP-1 Multispecies ELISA kit, BMS2194, Invitrogen) and LEGENDplex Mouse Inflammation Panel (740446, BioLegend) were performed according to manufacturer protocol. […]

[2] = tested on: colon tissue gene expression; test: RNA-sequencing of colon tissue of FDD mice during DSS colitis; type: in vivo, mouse
Experimental: as §2
RNA colonic transcriptomics For mRNA sequencing using the Illumina platform, total RNA was first extracted from tissue using TRItol reagent. The extracted RNA was quantified using Bioanalyzer to ensure high-quality RNA (RIN>7) for further library preparation. Poly-A mRNA was isolated using the Dynabeads™ mRNA Purification Kit (Thermo Fisher, #61006), followed by fragmentation with the NEBNext Ultra II RNA Library Prep Kit (New England Biolabs, #E7770) at 94° C. for 8 minutes. First-strand cDNA synthesis was performed using SuperScript IV Reverse Transcriptase (Thermo Fisher, #18090050), followed by second-strand cDNA synthesis. […] Libraries were validated for quality and size distribution using 2% agarose gel and enriched using size selection beads to eliminate any cDNA below 350 bp, and quantified using a Qubit 4 Fluorometer (Thermo Fisher, #Q33226). Sequencing was performed on an Illumina NextSeq550 platform using paired-end 150 bp reads high output.
Post-sequencing, FastQC (v0.11.9) was employed to assess raw read quality, evaluating metrics such as per-base sequence quality (Q30 or higher), GC content, and potential adapter contamination. […] Reads alignment and transcripts quantification of gene expression were done using Kallisto (v0.46.1) and DESeq2 (v1.30.1) was then used for differential expression analysis, incorporating normalization and variance-stabilizing transformation to account for differences in sequencing depth and library size. […]

[3] = tested on: acute DSS colitis in NFD/FDD fed mice; test: Acute DSS colitis in mice fed fiber-deficient (no fiber) diet; type: in vivo, mouse; conditions: five days DSS colitis
[4] = tested on: acute DSS colitis in NC/ND fed mice; test: Acute DSS colitis in mice fed normal chow / normal diet; type: in vivo, mouse; conditions: five days DSS colitis
Experimental: as §1, §2
Plating for liver colony forming units (CFU) For bacterial extraction from liver tissue, livers were first weighed and then transferred into sterile stainless steel microvials (Biospec #2007) containing two stainless steel beads (6.35 mm, Biospec #11079635SS) and capped with silicone rubber caps (Biospec #2008). […] Colony-forming units (CFU) were counted the following day and normalized to tissue weight.
Here, mice with low fiber diets were treated with DSS for […] with or without the engineered Nissle HldSE (FIG. 3A) Treatment with Nissle HldSE improved barrier function measured based on infiltrating gut bacteria in liver (Liver CFU; FIG. 3C). […]

[5] = tested on: IEL γδ (gd) T cells; test: IEL γδ T cell IL-17A production and γδ T cell depletion in DSS colitis of NFD fed mice; type: in vivo, mouse
Excerpt: EcN or EcN HldSE (5×10^9 CFU/mouse) was gavaged daily starting three days prior to DSS administration. gd T cells were depleted by administration of neutralizing antibodies i.p. every other day. […] EcN or EcN HldSE (5×10^9 CFU/mouse) was gavaged daily starting three days prior to DSS administration. gd T cells were depleted by administration of neutralizing antibodies i.p. every other day. N=3-5 mice/group, one experiment. […] EcN or EcN HldSE (5×10^9 CFU/mouse) was gavaged daily starting three days prior to DSS administration. gd T cells were depleted by administration of neutralizing antibodies i.p. every other day. N=3-5 mice/group, one experiment.

[6] = tested on: GLP-1 release; conditions: cited from earlier work
[7] = FDD mice, five days DSS colitis, agonist 0.1 μg/g i.p. daily or 10^10 CFU gavage daily
[8] = FDD mice, DSS colitis, EcN-HldSE treatment plus antagonist injection

Exendin-4 [GLP-1 receptor agonist]
L-cell numbers (GLP-1 staining) in colon ([1]; FDD mice during DSS colitis): increase
goblet cell numbers (Alcian Blue staining) in colon ([1]; FDD mice during DSS colitis): remained unchanged
histological colitis score ([1]; FDD mice, DSS colitis): improved
colitis outcome in dysbiotic mice ([1]; FDD mice, DSS colitis, figure headlines FIGS. 10, 11): ameliorate
circulating (pro-)inflammatory cytokines (TNF-α, IL-1α, IL-6, MCP-1) ([1]; FDD mice, five days DSS colitis, plasma): lower
colon shortening [1, 7]: less
weight loss [1, 7]: reduced
genes linked to ribosome biogenesis, cell cycle and DNA replication and inflammatory signaling ([2]; colon of FDD mice during colitis): downregulated
DEGs commonly upregulated in the colon with EcN-HldSE and the GLP-1 receptor agonist ([2]; colon of FDD mice, DSS colitis, versus EcN control): ~50%
genes associated with homeostasis and recovery phases (GSEA) ([2]; colon of FDD mice, acute colitis, DSS colitis time-series dataset): enrichment
genes involved in lipid metabolism, tight junctions and epithelial structure maintenance ([2]; over-representation analysis, colon of FDD mice during DSS colitis): upregulation
CFU levels in the liver (bacteria dissemination into the liver) [3]: significantly reduced

Exendin-9-39 [GLP-1 receptor antagonist]
protective effects of the engineered probiotic ([1]; FDD mice, DSS colitis, EcN-HldSE treatment plus antagonist 0.4 μg/g i.p. daily): abolished
colon length [1, 8]: shorter
level of circulating pro-inflammatory cytokines [1, 8]: elevated
number of bacteria in the liver [1, 8]: drastically increased
weight loss [1, 8]: severe
bacterial dissemination into the liver [4]: higher
colon shortening [4]: greater
disease severity [4]: exacerbated
weight loss [4]: more

MAADIISTIGDLVKWIIDTVNKFKK [HldSE]
IL-17A production by γδ T cells ([5]; IEL γδ T cells after 6 days of DSS treatment of NFD fed mice): upregulation
efficacy of the peptide after depletion of γδ T cells ([5]; experimental depletion of γδ T cells, NFD fed mice, DSS): notable, albeit not exhaustive, diminishment
GLP-1 release in vitro [6]: induce
